Test results published in US12678451B2, “Cannabinoid and omega fatty acid compositions and methods of using” (GreenWay Herbal Products, LLC, priority 2019, dated 2026).

Columns and labels:
[1] = tested on: cytokines induced in mice by LPS; assay: Mouse LPS cytokine model, Example 6C Study 1, omega fatty acids with or without 0.5 mg/kg 1:1 CBD:CBDA; format: in vivo; details: 0.5 mg/kg (0.01 mg per mouse)
Protocol: (§1) A series of experiments using a mouse LPS cytokine animal model were performed. In the mouse LPS cytokine animal model, mice were injected with LPS, which induced the immune response shortly after the mice were injected with one of the potential anti-inflammatory compounds under evaluation (the “test compound”). The efficacy of the test compound was evaluated based on its ability to reduce expression levels of inflammatory cytokines that were elevated due to the immune response. The test compounds included a cannabinoid, an omega fatty acid, and a cannabinoid-omega fatty acid composition.
(§2) The mice were intraperitoneally injected with 0.1 mL of the test compound. One hour later, the mice were intraperitoneally injected with 0.1 mL of LPS in phosphate buffered saline (PBS). Four hours later, a heart puncture was performed and the blood was allowed to clot to generate serum. 0.1 mL of the serum was diluted 1:2 with PBS and stored at −80° C. The serum was then sent to a laboratory where a mouse cytokine array/chemokine array 31-plex (MD31) analysis was performed that analyzed the expression levels of the 32 cytokines/chemokines listed in Table 9, above.
(§3) For each considered test compound, the ability of the test compound to suppress each inflammatory cytokine was calculated by determining the percent suppression.
(§4) In this study, the effects of combining 1:1 CBD:CBDA with anti-inflammatory omega unsaturated fatty acids using the mouse LPS cytokine animal model were examined.
(§5) 32 female C57BL/6 mice that weighed approximately 20 g each were allowed to acclimate for one week with unlimited access to food and water. On the day of the study, the mice were weighed and split into eight groups of four mice each so that the average weight of each group was as close as possible to each other.
(§6) Because the purpose of this experiment was to evaluate the effectiveness of combining 1:1 CBD:CBDA and the anti-inflammatory omega fatty acids, only cytokines that could be suppressed by one of the anti-inflammatory agents used in this study were considered.

[2] = tested on: cytokines induced in mice by LPS; assay: Mouse LPS cytokine model, Example 6D, ALA, DHA and EPA omega-3 samples; format: in vivo; details: 12.5 mg total omega fatty acids per mouse, DXM 0.01 mg per mouse
Protocol: as §1, §2, §3
as §5, with “36 female C57BL/6” for “32 female C57BL/6”, “each were obtained and allowed to” for “each were allowed to”, “one week after arrival with unlimited” for “one week with unlimited”
All of the omega fatty acid samples that were tested were diluted so the dose was 12.5 mg of total omega fatty acids per mouse. […] The omega fatty acids samples tested included: (1) pollock oil, 456 mg/mL omega unsaturated fatty acids. The pollock oil contained a mixture of anti-inflammatory omega-3, omega-7 and omega-9 unsaturated fatty acids. […] (2) Flaxseed oil, 656 mg/mL anti-inflammatory omega unsaturated fatty acids. The flaxseed oil contained a mixture of anti-inflammatory omega-3 and omega-9 unsaturated fatty acids. The omega-3 and omega-9 unsaturated fatty acids constituted 77.6% and […], respectively, of the anti-inflammatory omega fatty acids contained in the flaxseed oil. A 12.5 mg dose contained 9.7 mg of ALA in the triglyceride form. (3) Mono 2:1 DHA:EPA, 744 mg/mL omega-3 unsaturated fatty acids that were primarily DHA or EPA. A 12.5 mg dose contained 7.81 mg of DHA and 3.91 mg of EPA. The omega-3 unsaturated fatty acids were in the free mono form. […] A 12.5 mg dose contained 3.85 mg of DHA and 7.69 mg of EPA. The omega-3 unsaturated fatty acids were in the free mono form. (5) Tri 2:1 DHA:EPA, 678.9 mg/mL omega-3 unsaturated fatty acids that were primarily DHA or EPA. A 12.5 mg dose contained 7.88 mg of DHA and 3.94 mg of EPA. The omega-3 unsaturated fatty acids were in the triglyceride form. (6) Tri 1:2 DHA:EPA, 678.9 mg/mL omega-3 unsaturated fatty acids that were primarily DHA or EPA. A 12.5 mg dose contained 3.60 mg of DHA and 7.19 mg of EPA. The omega-3 unsaturated fatty acids were in the triglyceride form.

[3] = tested on: cytokines induced in mice by LPS; assay: Mouse LPS cytokine model, Example 6C Study 2, omega fatty acids with or without 0.5 mg/kg 1:1 CBD:CBDA; format: in vivo; details: 0.5 mg/kg (0.01 mg per mouse)
Protocol: as §1, §2, §3, §4
40 female C57BL/6 mice that weighed approximately 20 g each were allowed to acclimate for one week with unlimited access to food and water. On the day of the study, the mice were weighed and split into ten groups of four mice each so that the average weight of each group was as close as possible to each other. […] (9) LPS plus 37.50 mg omega fatty acids (0.1 mL injection of 375.00 mg/mL omega fatty acids diluted in MCT oil, followed 1 hour later by a 0.1 mL injection of LPS in PBS); and (10) LPS plus 37.50 mg omega fatty acids/0.01 mg 1:1 CBD:CBDA (0.1 mL injection of 375.00 mg/mL omega fatty acids/0.1 mg/mL 1:1 CBD:CBDA diluted in MCT oil, followed 1 hour later by a 0.1 mL injection of LPS in PBS).
as §6

[4] = tested on: cytokine levels in differentiated THP-1 cells treated with LPS; assay: THP-1 human cellular LPS cytokine assay, three independent experiments, total averaged suppression; details: Homo sapiens, THP-1, 4 h, read-out: % Cytokine Suppression (total averaged)
Protocol: Cells were seeded onto 24-, or 12-well plates and incubated for 48 hours to 72 hours to allow for differentiation. […] Supernatants were collected for quantification of human cytokine levels to assess the cytokine response. Cells remaining after the supernatant collection were tested to ensure they had at least 90% viability as determined by Alamar Blue assays. To conduct the Alamar Blue assays, supernatants were replaced with culture medium containing 1× Alamar Blue reagent and incubated overnight. Cell viability was assessed by measuring relative fluorescent units (RFU) on the SpectraMax M2e microplate reader (Molecular Devices Inc., Sunnyvale, Calif., USA) at Excitation 560 nm and Emission 590 nm. Controls included untreated cells with DMSO at the same concentration as the treated cells, LPS stimulated cells with DMSO at the same concentration as the treated cells and LPS stimulated cell with the various treatments. The levels of 42 of the most common human cytokines (Eve Technologies, Calgary, Canada Table 6) were determined by multi-plex analysis.
For this reason, the level of cytokine suppression was determined for each cytokine by each cannabinoid that was tested and the total averaged suppression for each cannabinoid was determined by dividing the total suppression by the number of the cytokines that were analyzed.

C[C@@H]1C[C@H]2[C@@H]3CCC4=CC(=O)C=C[C@]4(C)[C@@]3(F)[C@@H](O)C[C@]2(C)[C@@]1(O)C(=O)CO [Dexamethasone, dexamethasone]
AVERAGE SUPPRESSION [1]: 20.66% | IFNγ suppression [1]: −41.63% | IL-1β suppression [1]: 19.75% | IL-6 suppression [1]: 64.76% | IL-10 suppression [1]: 19.59% | IL-12 p70 suppression [1]: 10.64% | IL-12β p40 suppression [1]: 39.02% | IL-15 suppression [1]: 26.30% | IL-17 suppression [1]: 49.77% | IP-10 suppression [1]: 24.44% | KC suppression [1]: 40.63% | LIF suppression [1]: 29.55% | MCP-1 suppression [1]: 26.32% | MIG suppression [1]: 3.78% | MIP-1α suppression [1]: 26.86% | MIP-1β suppression [1]: 5.51% | MIP-2 suppression [1]: 34.16% | RANTES suppression [1]: −13.70% | TNF-α suppression [1]: 26.92% | AVERAGE SUPPRESSION [2]: 43.34% | Eotaxin suppression [2]: 24.14% | IL-6 suppression [2]: 76.02% | IL-10 suppression [2]: 47.30% | IP-10 suppression [2]: 41.65% | KC suppression [2]: 56.41% | MCP-1 suppression [2]: 54.99% | MIG suppression [2]: 25.46% | MIP-1α suppression [2]: 55.47% | MIP-1β suppression [2]: 48.33% | RANTES suppression [2]: 39.58% | AVERAGE SUPPRESSION ([2]; listed as DXM): 43.34% | AVERAGE SUPPRESSION ([2]; listed as dexamethasone): 43.34% | AVERAGE SUPPRESSION [3]: 46.54% | IFNγ suppression [3]: 70.28% | IL-6 suppression [3]: 76.63% | IL-7 suppression [3]: 31.25% | IL-10 suppression [3]: 24.07% | IL-12β p40 suppression [3]: 56.90% | IL-15 suppression [3]: 42.45% | IL-17 suppression [3]: 64.04% | IP-10 suppression [3]: 44.62% | KC suppression [3]: 79.04% | LIF suppression [3]: 51.34% | MCP-1 suppression [3]: 57.38% | MIG suppression [3]: 20.57% | MIP-1α suppression [3]: 59.54% | MIP-1β suppression [3]: 27.89% | RANTES suppression [3]: 46.25% | TNF-α suppression [3]: 61.44% | inhibition at 2 µM [4]: 51%
